Results reported in patent publication US10828326B2, “Compositions and methods for treating and preventing venom related poisoning” (priority 2015, dated 2020).

System: C. atrox venom
Assay: Isolated venom exposure to FeCl3, CORM-2 or iCORM-2, then thrombelastography in human plasma (Example VI)
Format: biochemical, Crotalus atrox
Details: in words
Procedure: C. atrox venom was obtained from the National Natural Toxins Research Center at Texas A&M University-Kingsville, Tex., USA. Venom was reconstituted in calcium-free phosphate buffered saline (PBS, Sigma-Aldrich, Saint Louis, Mo., USA), and stored at −80° C. Pooled human normal plasma anticoagulated with sodium citrate was obtained from George King Bio-Medical, Overland Park, Kans., USA. Ferric chloride (FeCl3, 99.9% pure), tricarbonyldichlororuthenium (II) dimer (CORM-2), and dimethyl sulfoxide (DMSO) were obtained from Sigma-Aldrich. The final concentrations of FeCl3 (dissolved in PBS) and CORM-2 (dissolved in DMSO) were 0-10 μM and 0-100 μM, respectively; these were the concentrations used in previous works involving the effects of modifying fibrinogen prior to venom exposure in plasma.
To increase the detection of effects of iron/CO on venom activity, the concentration of venom chosen for isolated exposure and for addition to plasma was twice the amount expected to eliminate coagulation based on previous work (see, Nielsen V G, Boyer L V. Iron and carbon monoxide attenuate degradation of plasmatic coagulation by Crotalus atrox venom. Blood Coagul Fibrinolysis. In press). A 1 ml quantity of a 200 μg/ml solution of venom in PBS was prepared for each condition subsequently presented. The conditions were: 1) 1% addition (v/v) of PBS and DMSO to PBS without venom; 2) 1% addition (v/v) of PBS and DMSO to PBS with venom; 3) 1% addition of FeCl3 and CORM-2 to PBS without venom; 4) 1% addition of FeCl3 and CORM-2 to PBS […]) 1% addition of FeCl3 and DMSO to PBS with venom; 6) 1% addition of CORM-2 to PBS with venom; and lastly, 7) 1% addition of PBS and iCORM-2 to PBS with venom. After 3 min of incubation at room temperature, 3.6 μl of solution from one of these conditions was placed into 326 μl of plasma and 10 μl of tissue factor reagent (0.1% final concentration in distilled water; Diagnostica Stago S.A.S., Asnieres sur Seine, France) in a disposable cup in a computer-controlled Thrombelastograph® hemostasis system (Model 5000, Haemonetics Inc., Braintree, Mass., USA). After test solution addition, 20 μl of 200 mM CaCl2 was immediately added to initiate clotting. Data were collected at 37° C. for 15 min. […] 2014; 25(8):801-805) were determined: time to maximum rate of thrombus generation (TMRTG): this is the time interval (min) observed prior to maximum speed of clot growth; maximum rate of thrombus generation (MRTG): this is the maximum velocity of clot growth observed (dynes/cm^2/sec); and total thrombus generation (TTG, dynes/cm^2), the final viscoelastic resistance observed after clot formation. […]

[Cl][Fe]([Cl])[Cl] [iron, ferric chloride]
effects on C. atrox venom activity on plasmatic coagulation (isolated venom exposure): no appreciable effects
coagulation kinetic parameters of plasma after addition of PBS with venom exposed to the agent (venom 2 μg/ml final, 10 μM FeCl3, 100 μM CORM-2 or iCORM-2): absence of coagulation not different from samples exposed to venom alone
